The target in series [1] is recombinant M^Pro (Severe acute respiratory syndrome coronavirus 2, UniProt P0DTD1). The experiment in a line: SARS-CoV-2 Mpro screening and IC50 determination (QS1 fluorogenic substrate, Drag assay). Type of series: biochemical. As to conditions: for inhibition at 10 µM: read-out: M^Pro (%inh)@10μM.
The target of series [2] is PL^Pro (Severe acute respiratory syndrome coronavirus 2, UniProt P0DTD1). The experiment in a line: SARS-CoV-2 PLpro screening (Ac-LRGG-ACC substrate). Type of series: biochemical. As to conditions: read-out: PL^Pro (%inh)@10μM.
Series [3] is described as follows: in vitro. As to conditions: African monkey.
The mark [4] stands for this setting: recombinant M^Pro, 20 μM QS1 (Ac-Abu-Tle-Leu-Gln-ACC) substrate, Table 1, read-out: M^Pro IC50.
Setting [5] is: recombinant M^Pro, 20 μM QS1 substrate, Table 3, read-out: M^Pro IC50.
Setting [6] is: recombinant M^Pro, 20 μM QS1 substrate, Table 5, read-out: IC50 (μM) M^Pro.

The source of these data is publication PMC12516390 (ACS Medicinal Chemistry Letters, 2025).

Structures are written as SMILES. Where two headings read alike, the source gives them in different places.

Consider `CC(C)C[C@H](NC(=O)c1ccc(-c2ccc(Cl)cc2)cc1)C(=O)N[C@H](C#N)C[C@@H]1CCNC1=O` [6a], for which, in series [1], the “activity / biochemical potency against M^Pro (in words)” value is “submicromolar” and the inhibition at 10 µM is over 95%. Moreover, the 50% inhibitory concentration (IC50) in series [1] (setting [4]) worked out at 0.724 µM. Besides, the inhibition at 10 µM in series [2] is under 50%.
On to `CC(C)C[C@H](NC(=O)c1ccc(-c2ccc(F)cc2)cc1)C(=O)N[C@H](C#N)C[C@@H]1CCNC1=O` [6b], for which the “activity / biochemical potency against M^Pro (in words)” value in series [1] is recorded as “submicromolar”. For the same molecule, the inhibition at 10 µM in series [1] was over 95%; in series [2], under 50%. Also, the concentration for half-maximal inhibition (IC50) in series [1] (setting [4]) turned out to be 0.849 µM.
Regarding `CCOc1ccc(-c2ccc(C(=O)N[C@@H](CC(C)C)C(=O)N[C@H](C#N)C[C@@H]3CCNC3=O)cc2)cc1` [6c], the inhibition at 10 µM in series [1] was over 95%; in series [2] it was under 50%. The half-inhibitory concentration (IC50) in series [1] (setting [4]) came to 0.765 µM.
With `COc1ccc(-c2ccc(C(=O)N[C@@H](CC(C)C)C(=O)N[C@H](C#N)C[C@@H]3CCNC3=O)cc2)cc1` [6d], the results for the inhibition at 10 µM in series [1] and in series [2] were over 95% and under 50%, respectively. In addition, the IC50 in series [1] (setting [4]) was 0.735 µM.
Turning to `COc1ccccc1-c1ccc(C(=O)N[C@@H](CC(C)C)C(=O)N[C@H](C#N)C[C@@H]2CCNC2=O)cc1` [6g], the inhibition at 10 µM was over 95% in series [1] and under 50% in series [2]. For the same molecule, the values for the IC50 in series [1] (read-out: M^Pro IC50) and in series [1] (setting [4]) were over 1 µM and 1.09 µM, respectively.
For `CC(C)C[C@H](NC(=O)c1ccc(-c2cncc(Cl)c2)cc1)C(=O)N[C@H](C#N)C[C@@H]1CCNC1=O` [6h], in that order: over 95%, under 50%, over 1 µM and 1.3 µM.
`CCOc1cccc(-c2ccc(C(=O)N[C@@H](CC(C)C)C(=O)N[C@H](C#N)C[C@@H]3CCNC3=O)cc2)c1` [6i]: the inhibition at 10 µM in series [1] was over 95%; in series [2], under 50%. For the same molecule, the IC50 in series [1] (setting [4]) was determined as 0.798 µM.
In the case of `COc1ccc(-c2ccc(C(=O)N[C@@H](CC(C)C)C(=O)N[C@H](C#N)C[C@@H]3CCNC3=O)cc2)cn1` [6k], the figures for the inhibition at 10 µM in series [1] and in series [2] were over 95% and under 50%, respectively. Also, the IC50 is over 1 µM in series [1] (read-out: M^Pro IC50) and 1.21 µM in series [1] (setting [4]).
Turning to `CCOc1ccc(-c2ccc(C(=O)N[C@@H](CC(C)C)C(=O)N[C@H](C#N)C[C@@H]3CCNC3=O)cc2)cc1F` [6m], the inhibition at 10 µM in series [1] was over 95%; in series [2], under 50%. For the same molecule, in series [1] (setting [4]), the IC50 was 0.731 µM.
The matching figures for `CC(C)C[C@H](NC(=O)c1ccc(-c2ccc3cnn(C)c3c2)cc1)C(=O)N[C@H](C#N)C[C@@H]1CCNC1=O` [6n]: over 95%, under 50% and 0.653 µM.
With `CC(C)C[C@@H](NC(=O)c1ccc(Br)cc1)C(=O)N[C@H](C#N)C[C@@H]1CCNC1=O` [11b], the inhibition at 10 µM in series [1] is under 95%; in series [2], under 50%.
For `CCCC(NC(=O)c1ccc(Br)cc1)C(=O)NC(C#N)CC1CCNC1=O` (stereo not drawn) [11c], in that order: under 95% and under 50%.
The matching figures for `N#CC(CC1CCNC1=O)NC(=O)C(CC1CCCCC1)NC(=O)c1ccc(Br)cc1` (stereo not drawn) [11d]: under 95% and under 50%.
The matching figures for `N#C[C@H](C[C@@H]1CCNC1=O)NC(=O)C1(NC(=O)c2ccc(Br)cc2)CCCCC1` [11e]: over 95% and under 50%.
With `CC(C)C[C@@H](NC(=O)c1ccc(-c2ccc(Cl)cc2)cc1)C(=O)N[C@H](C#N)C[C@@H]1CCNC1=O` [12a], the inhibition at 10 µM in series [1] is over 95%; in series [2], under 50%. The half-inhibitory concentration (IC50) in series [1] (setting [4]) came out at 3.24 µM.
The matching figures for `CC(C)C[C@@H](NC(=O)c1ccc(-c2ccc(F)cc2)cc1)C(=O)N[C@H](C#N)C[C@@H]1CCNC1=O` [12b]: over 95%, under 50% and 4.03 µM.
Consider `CC(C)C[C@@H](NC(=O)c1ccc(-c2ccc(F)nc2)cc1)C(=O)N[C@H](C#N)C[C@@H]1CCNC1=O` [12c], for which the inhibition at 10 µM in series [1] was over 95%; in series [2], under 50%. For the same molecule, in series [1] (setting [4]), the IC50 stood at 5.83 µM.
Consider `CCC[C@H](NC(=O)c1ccc(-c2ccccc2OC)cc1)C(=O)N[C@H](C#N)C[C@@H]1CCNC1=O` [12d], for which the inhibition at 10 µM in series [1] was under 95%; in series [2], under 50%.
Regarding `CCC[C@H](NC(=O)c1ccc(-c2cccc(OC)c2)cc1)C(=O)N[C@H](C#N)C[C@@H]1CCNC1=O` [12e], the inhibition at 10 µM in series [1] was over 95%; in series [2] it was under 50%. For the same molecule, the IC50 in series [1] (setting [4]) turned out to be 4.86 µM.
In the case of `CCC[C@H](NC(=O)c1ccc(-c2ccc(OC)cc2)cc1)C(=O)N[C@H](C#N)C[C@@H]1CCNC1=O` [12f], the inhibition at 10 µM in series [1] was over 95%; in series [2] it was under 50%. The IC50 in series [1] (setting [4]) was found to be 5.48 µM.
`CCC[C@H](NC(=O)c1ccc(-c2ccc(OC)c(OC)c2)cc1)C(=O)N[C@H](C#N)C[C@@H]1CCNC1=O` [12g]: the inhibition at 10 µM is over 95% in series [1] and under 50% in series [2]. Further, the IC50 in series [1] (setting [4]) was 9.55 µM.
The matching figures for `CCC[C@H](NC(=O)c1ccc(-c2cncc(Cl)c2)cc1)C(=O)N[C@H](C#N)C[C@@H]1CCNC1=O` [12h]: over 95%, under 50% and 8.95 µM.
Turning to `CCC[C@H](NC(=O)c1ccc(-c2cccc(OCC)c2)cc1)C(=O)N[C@H](C#N)C[C@@H]1CCNC1=O` [12i], the inhibition at 10 µM is over 95% in series [1] and under 50% in series [2]. Also, the IC50 in series [1] (setting [4]) amounted to 4.86 µM.
`CCC[C@H](NC(=O)c1ccc(-c2ccc(OC)nc2)cc1)C(=O)N[C@H](C#N)C[C@@H]1CCNC1=O` [12j]: the figures for the inhibition at 10 µM in series [1] and in series [2] were under 95% and under 50%, respectively.
On to `COc1ccc(-c2ccc(C(=O)N[C@@H](CC3CCCCC3)C(=O)N[C@H](C#N)C[C@@H]3CCNC3=O)cc2)cc1OC` [12m], for which the inhibition at 10 µM in series [1] was under 95%; in series [2], under 50%. Also, the IC50 in series [1] (setting [4]) was found to be 2.11 µM.
For the molecule `Cn1cc2c(-c3ccc(C(=O)N[C@@H](CC4CCCCC4)C(=O)N[C@H](C#N)C[C@@H]4CCNC4=O)cc3)cccc2n1` [12n], the inhibition at 10 µM in series [1] is under 95%; in series [2], under 50%. In series [1] (setting [4]), the IC50 came to 1.28 µM.
The matching figures for `N#C[C@H](C[C@@H]1CCNC1=O)NC(=O)[C@H](CC1CCCCC1)NC(=O)c1ccc(-c2cncc(Cl)c2)cc1` [12o]: under 95%, under 50% and 2.4 µM.
For `COc1ccc(-c2ccc(C(=O)NC3(C(=O)N[C@H](C#N)C[C@@H]4CCNC4=O)CCCCC3)cc2)cc1` [12p], the inhibition at 10 µM in series [1] is over 95%; in series [2] it was under 50%.
`COc1cccc(-c2ccc(C(=O)N[C@@H](CC(C)C)C(=O)N[C@H](C#N)C[C@@H]3CCNC3=O)c(F)c2F)c1` [18d]: the IC50 in series [1] (setting [5]) worked out at 0.171 µM.
The same measure, in the same setting: in the case of `COc1ccc(-c2ccc(C(=O)N[C@@H](CC(C)C)C(=O)N[C@H](C#N)C[C@@H]3CCNC3=O)c(F)c2F)cc1` [18e] it was 0.155 µM; in that of `COc1cccc(-c2cc(F)c(C(=O)N[C@@H](CC(C)C)C(=O)N[C@H](C#N)C[C@@H]3CCNC3=O)cc2F)c1` [18f], 0.245 µM.
The same measure, in the same setting: under `COc1ccc(-c2cc(F)c(C(=O)N[C@@H](CC(C)C)C(=O)N[C@H](C#N)C[C@@H]3CCNC3=O)cc2F)cc1` [18g] stands 0.229 µM; under `COc1cccc(-c2ccc(C(=O)N[C@@H](CC(C)C)C(=O)N[C@H](C#N)C[C@@H]3CCNC3=O)cc2F)c1` [18h], 0.694 µM.
Take `COc1ccc(-c2ccc(C(=O)N[C@@H](CC(C)C)C(=O)N[C@H](C#N)C[C@@H]3CCNC3=O)cc2F)cc1` [18i]: in series [1] (setting [5]), the half-inhibitory concentration (IC50) came out at 0.661 µM.
The same measure, in the same setting: under `COc1cccc(-c2ccc(C(=O)N[C@@H](CC(C)C)C(=O)N[C@H](C#N)C[C@@H]3CCNC3=O)c(C)c2)c1` [18j] stands 0.163 µM.
Still for that read-out and setting: under `COc1cccc(-c2ccc(C(=O)N[C@@H](CC(C)C)C(=O)N[C@H](C#N)C[C@@H]3CCNC3=O)c(C(F)(F)F)c2)c1` [18l] stands 0.115 µM.
Consider `COc1cccc(-c2ccc(C(=O)N3C[C@H]4[C@@H]([C@H]3C(=O)N[C@H](C#N)C[C@@H]3CCNC3=O)C4(C)C)cc2)c1` [22a], for which the IC50 in series [1] (setting [6]) worked out at 1.02 µM.
The same measure, in the same setting: in the case of `COc1ccc(-c2ccc(C(=O)N3C[C@H]4[C@@H]([C@H]3C(=O)N[C@H](C#N)C[C@@H]3CCNC3=O)C4(C)C)cc2)cc1` [22b] it was 1.13 µM; in that of `COc1cccc(-c2ccc(C(=O)N3C[C@H]4[C@@H]([C@H]3C(=O)N[C@H](C#N)C[C@@H]3CCNC3=O)C4(C)C)c(F)c2)c1` [22c], 0.465 µM.
`COc1ccc(-c2ccc(C(=O)N3C[C@H]4[C@@H]([C@H]3C(=O)N[C@H](C#N)C[C@@H]3CCNC3=O)C4(C)C)c(F)c2)cc1` [22d]: in series [1] (setting [6]), the half-inhibitory concentration (IC50) was found to be 0.394 µM.
As for `COc1cccc(-c2ccc(C(=O)N3C[C@@H]4CCC[C@@H]4[C@H]3C(=O)N[C@H](C#N)C[C@@H]3CCNC3=O)cc2)c1` [22g], the IC50 in series [1] (setting [6]) was found to be 2.67 µM.
Take `COc1ccc(-c2ccc(C(=O)N3C[C@@H]4CCC[C@@H]4[C@H]3C(=O)N[C@H](C#N)C[C@@H]3CCNC3=O)cc2)cc1` [22h]: the IC50 in series [1] (setting [6]) came to 2.99 µM.
In the case of `COc1cccc(-c2ccc(C(=O)N3C[C@@H]4CCC[C@@H]4[C@H]3C(=O)N[C@H](C#N)C[C@@H]3CCNC3=O)c(F)c2)c1` [22i], the IC50 in series [1] (setting [6]) came to 1.91 µM.
Consider `COc1ccc(-c2ccc(C(=O)N3C[C@@H]4CCC[C@@H]4[C@H]3C(=O)N[C@H](C#N)C[C@@H]3CCNC3=O)c(F)c2)cc1` [22j], for which, in series [1] (setting [6]), the 50% inhibitory concentration (IC50) came out at 1.27 µM.
In series [3], `CC(C)(C)[C@H](NC(=O)C(F)(F)F)C(=O)N1C[C@H]2[C@@H]([C@H]1C(=O)N[C@H](C#N)C[C@@H]1CCNC1=O)C2(C)C` [nirmatrelvir, reference compound] yielded a CC50 of over 100 µM.
